# Measured values published in US7977375B2, “Antibiotic and method of production thereof” (Helmholtz-Zentrum Für Infektionsforschung GmbH, priority 2004, dated 2011).
# Tests used:
# E. faecalis VRAS E305 [1] = assay: agar diffusion method, inhibition zone; assay type: cell-based, Enterococcus faecalis; conditions: E. faecalis VRAS E305, MH agar, 18 hours at 37° C., per disk 10 μl crude extract, 50 μg macrolactin, 78 μg erythromycin, 30 μg vancomycin, 10 μg ampicillin
# Description: (§1) The agar diffusion method employing Mueller-Hinton (MH) agar (Difco Laboratories) was used to determine effectiveness against bacteria and yeasts. Sterile paper disks (Schleicher & Schüell, Germany) were seeded with 10 μl crude extract or with a solution of purified macrolactin (final compound concentration on the disk 50 μg) and then placed on the surface of MH-agar plates that had been seeded beforehand with a suspension of overnight culture of the test microorganisms at a concentration of 10^5 cells/ml.
# E. faecalis ATCC 29212 = assay: agar diffusion method, inhibition zone; assay type: cell-based, Enterococcus faecalis; conditions: Enterococcus faecalis, ATCC29212; E. faecalis ATCC 29212; MH agar, 18 hours at 37° C.; per disk 10 μl crude extract, 50 μg macrolactin, 78 μg erythromycin, 30 μg vancomycin, 10 μg ampicillin
# Description: as §1
# E. faecium VRAR E315 [2] = assay: MIC / MBC in liquid culture; assay type: cell-based, Enterococcus faecium; conditions: E. faecium VRAR E315
# Candida krusei DSM 6128 = assay: MIC / MBC in liquid culture; assay type: cell-based; conditions: Pichia kudriavzevii
# E. faecium VRAR E315 [3] = assay: electron microscopy of cell division (FIG. 3); assay type: cell-based, Enterococcus faecium; conditions: 16 μg/ml, 4 hours
# Description: FIG. 3 a) to c) are electron microscope photographs of E. faecium VRAR E315 after 4 hours growth without antibiotic and d), e) and f) in the presence of 16 μg/ml 7-O-malonyl macrolactin A;
# (§2) It is thought that 7-O-malonyl macrolactin A inhibits the division of bacterial cells, which interrupts the proliferation thereof.
# The effect of 7-O-malonyl macrolactin A on cell division can also be observed from the electron microscope photographs of Enterococcus faecium (VRAR=vancomycin-resistant, ampicillin-resistant, E315, clinical isolate) shown in FIG. 3. The division planes of the untreated cells after 4 hours growth without antibiotic appear as light regions in FIGS. 3a), b) and c). […] In this example, however, no fully formed cell division planes are evident. The initiation of asymmetrical cell division is indicated by the small black arrowheads.
# E. faecalis VRAS E305 [4] = assay: MIC / MBC in liquid culture; assay type: cell-based, Enterococcus faecalis; conditions: E. faecalis VRAS E305
# [5] = system: human epithelial cell line HeLa; assay: inhibition of proliferation, CyQUANT cell proliferation test; assay type: cell-based
# Description: (§3) The cytotoxicity of 7-O-malonyl macrolactin A was compared to that of 7-O-succinyl macrolactin A and macrolactin A in vitro with respect to the inhibition of the proliferation of L929 mouse fibroblast cells or the human epithelial cell line HeLa.
# (§4) For the cell culture, the HeLa cells were cultivated in low-glucose DMEM medium (Gibco), and the L929 cells in high-glucose DMEM medium. Both were supplemented with 10% by volume foetal calf serum (Gibco) at 37° C. in an atmosphere containing 5% CO2. The cells were extracted from stock cultures by means of trypsinization with EDTA (HeLa) or without EDTA (L929), then counted and diluted to 2×10^5 cells/ml. For the tests, microtitre plates (Nunc.) comprising 96 depressions were plated out in serial dilution without or in the presence of the test compounds or methanol. Determination of morphological alterations of the cells was carried out by means of phase contrast microscopy after 1, 2 and 5 days incubation.
# (§5) After 5 days cultivation, cell counts were determined by the CyQUANT cell proliferation test (Molecular Probes), which is a highly sensitive microtitre plate test based on fluorescence. The test employs the dye CyQUANT, which, by binding to cellular nucleic acids, enhances fluorescence, which can then be measured by fluorescein excitation. The emission of fluorescence by the dye-nucleic acid complex correlated linearly with the cell count. For test purposes, the residue was carefully removed after 5 days incubation, the cells washed with PBS (phosphate buffered saline solution), the buffer removed and the cells frozen at −80° C. For the test, the cells were thawed at ambient temperature and lysated in a buffered solution containing the dye CyQUANT, in accordance with manufacturer's instructions. Fluorescence was measured by means of a fluormetric microtitre-plate reader (Titertex Fluorskan II) (excitation at 480 nm, emission at 520 nm). The […] were used to calculate the percentage of cellular proliferation in medium both alone and in the presence of serial dilutions of methanol and the macrolactin compounds. […] Proliferation was measured by means of the fluorescence-based test CyQUANT for determining viable cell counts. Table 5 illustrates the relative inhibition of proliferation as compared to a control culture comprising fresh medium without the addition of a macrolactin.
# [6] = system: L929 mouse fibroblast cells; assay: as above; assay type: cell-based; conditions: Mus musculus, L929, 120 h, 5 days
# Description: as §3, §4, §5
# MRSA 2 = assay: MIC / MBC in liquid culture; assay type: cell-based, Staphylococcus aureus; conditions: MRSA 2
# MRSA 3 = assay: MIC / MBC in liquid culture; assay type: cell-based, Staphylococcus aureus; conditions: MRSA 3
# [7] = system: S. aureus # (non-methicillin-resistant reference strain); assay: MIC / MBC in liquid culture; assay type: cell-based, Staphylococcus aureus; conditions: S. aureus #
# S. aureus MRSA 3 = assay: electron microscopy of cell division (FIG. 2); assay type: cell-based, Staphylococcus aureus; conditions: 16 μg/ml, 4 hours shake culture
# Description: FIGS. 2 a), b) and c) are electron microscope photographs of S. aureus MRSA 3 after 4 hours growth without antibiotic and d), e) and f) in the presence of 16 μg/ml 7-O-malonyl macrolactin A;
# as §2
# 7-O-malonyl macrolactin A influences cell division in MRSA 3, which is evident from the altered division planes. […] The large black arrowheads (FIGS. 2e) and f)) indicate the division planes, while the small black arrowheads indicate an asymmetrical initiation of cell division.
# [8] = Staphylococcus aureus, pronounced inhibition of growth, read-out: MBC (minimal bacteriostatic or fungistatic concentration)
# [9] = Staphylococcus aureus, read-out: MIC (minimal inhibitory concentration)
smiles,measurement,setting,value
CC1CCC/C=C/C=C/C(O)CC(O)C/C=C\C=C\C(OC(=O)CC(=O)O)C/C=C/C=C\C(=O)O1 (stereo not shown) [7-O-malonyl macrolactin A],Inhibition zone,E. faecalis VRAS E305 [1],produced an inhibition zone
same,zone of inhibition at 50 µg/disc,"E. faecalis VRAS E305 [1]; Enterococcus faecalis, VRASE305",15 mm
same,zone of inhibition at 50 µg/disc,E. faecalis ATCC 29212,25 mm
same,MIC (minimal inhibitory concentration),E. faecium VRAR E315 [2],>128 µg/mL
same,MBC,"E. faecium VRAR E315 [2]; Enterococcus faecium, VRARE315, read-out: MBC (minimal bacteriostatic or fungistatic concentration)",4 µg/mL
same,MIC,"E. faecium VRAR E315 [2]; Enterococcus faecium, VRARE315, read-out: MIC (minimal inhibitory concentration)",> 128 µg/mL
same,MBC,"Candida krusei DSM 6128; DSM6128, read-out: MBC (minimal bacteriostatic or fungistatic concentration)",32 µg/mL
same,MIC,"Candida krusei DSM 6128; DSM6128, read-out: MIC (minimal inhibitory concentration)",> 128 µg/mL
same,"effect on cell division, electron microscope",E. faecium VRAR E315 [3],"anomalous, asymmetrical cell division is being initiated"
same,MIC (minimal inhibitory concentration),E. faecalis VRAS E305 [4],>128 µg/mL
same,MBC,"E. faecalis VRAS E305 [4]; Enterococcus faecalis, VRASE305, read-out: MBC (minimal bacteriostatic or fungistatic concentration)",0.06 µg/mL
same,MIC,"E. faecalis VRAS E305 [4]; Enterococcus faecalis, VRASE305, read-out: MIC (minimal inhibitory concentration)",> 128 µg/mL
same,Inhibition of proliferation,"[5]; 62.5 μg/ml, CyQUANT test",practically complete inhibition of growth
same,inhibition at 3.9 µg/mL,"[5]; Homo sapiens, 120 h, compound concentration 3.9 μg/ml, 5 days",0%
same,inhibition at 7.8 µg/mL,"[5]; Homo sapiens, 120 h, compound concentration 7.8 μg/ml, 5 days",0%
same,inhibition at 15.6 µg/mL,"[5]; Homo sapiens, 120 h, compound concentration 15.6 μg/ml, 5 days",0%
same,inhibition at 31.25 µg/mL,"[5]; Homo sapiens, 120 h, compound concentration 31.25 μg/ml, 5 days",62%
same,inhibition at 56.5 µg/mL,"[5]; Homo sapiens, 120 h, compound concentration 56.5 μg/ml, 5 days",93%
same,inhibition at 125 µg/mL,"[5]; Homo sapiens, 120 h, compound concentration 125 μg/ml, 5 days",100%
same,Inhibition of proliferation,"[5]; compound concentration 15.6 μg/ml, 5 days",failed to inhibit the proliferation
same,Inhibition of proliferation,"[5]; compound concentration 31.25 μg/ml, 5 days",capable of inhibiting the proliferation
same,inhibition at 3.9 µg/mL,[6]; compound concentration 3.9 μg/ml,0%
same,inhibition at 7.8 µg/mL,[6]; compound concentration 7.8 μg/ml,0%
same,inhibition at 15.6 µg/mL,[6]; compound concentration 15.6 μg/ml,~32%
same,inhibition at 31.25 µg/mL,[6]; compound concentration 31.25 μg/ml,80%
same,inhibition at 56.5 µg/mL,[6]; compound concentration 56.5 μg/ml,86%
same,inhibition at 125 µg/mL,[6]; compound concentration 125 μg/ml,84%
same,MIC (minimal inhibitory concentration),MRSA 2,>128 µg/mL
same,MBC,MRSA 2; [8],4 µg/mL
same,MIC,MRSA 2; [9],> 128 µg/mL
same,MIC (minimal inhibitory concentration),MRSA 3,>128 µg/mL
same,MBC,MRSA 3; [8],4 µg/mL
same,MIC,MRSA 3; [9],> 128 µg/mL
same,MIC (minimal inhibitory concentration),[7],>128 µg/mL
same,MBC,[7]; [8],1 µg/mL
same,MIC,[7]; [9],> 128 µg/mL
same,"effect on cell division, electron microscope",S. aureus MRSA 3,disrupted cell division
